What was measured:
[1] = target: T1, Ba/F3-FGFR3-transfected cells (Homo sapiens, UniProt P22607); assay: Ba/F3-FGFR3 (minus IL3) cellular proliferation assay, Alamar Blue; assay type: cell-based
T1 construct: BAF3-FGFR3 (MIN IL3) pIC50; other: minus IL3
Summary of the method: (§1)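 Compound dilutions were dispensed first, then 20000 FGFR3-transfected Ba/F3 cells per well in serum-containing RPMI-1640 were added. After 24 h incubation at 37° C, Alamar Blue was applied for 4 h before relative fluorescence units were recorded. In the minus-IL3 format cells grow without cytokine; the other format contains 10 ng/ml murine IL3.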

KDR (h) = KDR (h) (Homo sapiens, UniProt P35968); assay: KDR (VEGFR2) (enzymatic assay), TR-FRET; assay type: biochemical; settings: read-out: VEGFR 2 (KDR) pIC50 (converted)
KDR (h), sequence (P35968 20-1356): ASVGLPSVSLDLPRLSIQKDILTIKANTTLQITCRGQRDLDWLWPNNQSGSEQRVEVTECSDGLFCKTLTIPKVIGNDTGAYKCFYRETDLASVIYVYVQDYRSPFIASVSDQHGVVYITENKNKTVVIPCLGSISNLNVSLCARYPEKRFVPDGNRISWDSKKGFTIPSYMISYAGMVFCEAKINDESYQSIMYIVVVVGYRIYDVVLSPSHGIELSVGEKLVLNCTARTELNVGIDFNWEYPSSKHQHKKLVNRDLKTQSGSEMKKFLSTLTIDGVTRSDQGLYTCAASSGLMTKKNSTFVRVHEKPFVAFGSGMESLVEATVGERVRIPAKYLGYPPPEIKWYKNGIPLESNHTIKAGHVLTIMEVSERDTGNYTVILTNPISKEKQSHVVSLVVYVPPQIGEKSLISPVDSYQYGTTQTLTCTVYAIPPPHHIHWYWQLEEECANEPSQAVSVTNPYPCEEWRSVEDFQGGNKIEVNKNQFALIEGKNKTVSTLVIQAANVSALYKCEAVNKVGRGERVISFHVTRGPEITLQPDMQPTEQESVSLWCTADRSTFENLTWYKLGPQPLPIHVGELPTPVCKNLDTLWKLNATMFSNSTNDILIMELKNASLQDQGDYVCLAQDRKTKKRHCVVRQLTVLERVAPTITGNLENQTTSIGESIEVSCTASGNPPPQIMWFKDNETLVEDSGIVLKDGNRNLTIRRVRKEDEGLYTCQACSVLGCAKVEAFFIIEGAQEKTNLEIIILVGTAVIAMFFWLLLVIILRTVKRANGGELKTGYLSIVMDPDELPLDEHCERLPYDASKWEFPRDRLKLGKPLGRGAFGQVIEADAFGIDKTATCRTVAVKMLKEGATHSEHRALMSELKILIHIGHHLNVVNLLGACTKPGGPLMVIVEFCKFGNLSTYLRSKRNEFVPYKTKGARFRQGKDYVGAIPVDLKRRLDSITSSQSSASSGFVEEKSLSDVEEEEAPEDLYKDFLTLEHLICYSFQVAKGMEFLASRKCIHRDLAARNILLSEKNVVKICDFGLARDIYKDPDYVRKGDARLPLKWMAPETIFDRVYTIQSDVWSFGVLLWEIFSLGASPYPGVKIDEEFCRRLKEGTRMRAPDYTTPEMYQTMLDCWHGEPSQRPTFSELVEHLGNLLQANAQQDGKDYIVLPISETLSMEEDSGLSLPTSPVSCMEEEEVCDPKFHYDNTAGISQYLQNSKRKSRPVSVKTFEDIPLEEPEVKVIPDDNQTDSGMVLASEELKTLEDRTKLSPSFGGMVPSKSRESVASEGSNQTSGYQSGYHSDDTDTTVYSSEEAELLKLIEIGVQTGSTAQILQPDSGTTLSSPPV
Summary of the method: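 TR-FRET readout (ex 340, em 620/655 nm) in RFU after EDTA stop with Eu-anti-phosphotyrosine and SA-XL665 for 60 min. The preceding 120-min room-temperature kinase step used 150 ng/ml KDR (h), 3 μM ATP, 500 nM biotinylated Flt3 peptide, MnCl2-containing HEPES buffer pH 7.5, 1% DMSO.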

FGFR3 (h) = FGFR3 (h) (Homo sapiens, UniProt P22607); assay: FGFR3 (enzymatic assay), TR-FRET; assay type: biochemical; settings: read-out: FGFR 3 pIC50 (converted)
FGFR3 (h), sequence (P22607 23-806): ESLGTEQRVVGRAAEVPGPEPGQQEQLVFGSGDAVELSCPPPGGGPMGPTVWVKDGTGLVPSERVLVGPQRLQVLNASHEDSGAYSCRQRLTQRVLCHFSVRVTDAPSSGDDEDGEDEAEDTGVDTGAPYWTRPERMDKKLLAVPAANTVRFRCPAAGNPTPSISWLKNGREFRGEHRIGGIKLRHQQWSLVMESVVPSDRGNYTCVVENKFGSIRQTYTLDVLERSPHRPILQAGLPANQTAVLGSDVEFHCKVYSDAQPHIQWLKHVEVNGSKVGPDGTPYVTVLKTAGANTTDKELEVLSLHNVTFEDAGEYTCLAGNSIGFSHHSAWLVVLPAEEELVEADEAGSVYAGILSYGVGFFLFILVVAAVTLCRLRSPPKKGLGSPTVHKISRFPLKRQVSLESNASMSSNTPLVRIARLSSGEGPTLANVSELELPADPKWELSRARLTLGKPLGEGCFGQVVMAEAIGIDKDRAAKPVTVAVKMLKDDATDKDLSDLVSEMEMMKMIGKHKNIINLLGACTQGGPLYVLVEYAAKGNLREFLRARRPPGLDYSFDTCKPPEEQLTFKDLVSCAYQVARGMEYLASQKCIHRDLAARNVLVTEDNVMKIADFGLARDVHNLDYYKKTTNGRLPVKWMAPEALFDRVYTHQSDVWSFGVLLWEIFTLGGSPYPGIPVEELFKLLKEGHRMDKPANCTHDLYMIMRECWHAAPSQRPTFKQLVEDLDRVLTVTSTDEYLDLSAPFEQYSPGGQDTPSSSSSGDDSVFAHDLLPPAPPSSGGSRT
Text: Time-Resolved Fluorescence Resonance Energy Transfer (TR-FRET) signal (ex340 nm.

FGFR4 (h) = FGFR4 (h) (Homo sapiens, UniProt P22455); assay: FGFR4 (enzymatic assay), TR-FRET; assay type: biochemical; settings: FGFR 4 pIC50, enzymatic assay
FGFR1 (h) = FGFR1 (h) (Homo sapiens, UniProt P11362); assay: FGFR1 (enzymatic assay), TR-FRET; assay type: biochemical; settings: read-out: FGFR 1 pIC50 (converted)
FGFR2 (h) = FGFR2 (h) (Homo sapiens, UniProt P21802); assay: FGFR2 (enzymatic assay), TR-FRET; assay type: biochemical; settings: enzymatic assay; read-out: FGFR 2 pIC50 (converted)
FGFR2 (h), sequence (P21802 22-821): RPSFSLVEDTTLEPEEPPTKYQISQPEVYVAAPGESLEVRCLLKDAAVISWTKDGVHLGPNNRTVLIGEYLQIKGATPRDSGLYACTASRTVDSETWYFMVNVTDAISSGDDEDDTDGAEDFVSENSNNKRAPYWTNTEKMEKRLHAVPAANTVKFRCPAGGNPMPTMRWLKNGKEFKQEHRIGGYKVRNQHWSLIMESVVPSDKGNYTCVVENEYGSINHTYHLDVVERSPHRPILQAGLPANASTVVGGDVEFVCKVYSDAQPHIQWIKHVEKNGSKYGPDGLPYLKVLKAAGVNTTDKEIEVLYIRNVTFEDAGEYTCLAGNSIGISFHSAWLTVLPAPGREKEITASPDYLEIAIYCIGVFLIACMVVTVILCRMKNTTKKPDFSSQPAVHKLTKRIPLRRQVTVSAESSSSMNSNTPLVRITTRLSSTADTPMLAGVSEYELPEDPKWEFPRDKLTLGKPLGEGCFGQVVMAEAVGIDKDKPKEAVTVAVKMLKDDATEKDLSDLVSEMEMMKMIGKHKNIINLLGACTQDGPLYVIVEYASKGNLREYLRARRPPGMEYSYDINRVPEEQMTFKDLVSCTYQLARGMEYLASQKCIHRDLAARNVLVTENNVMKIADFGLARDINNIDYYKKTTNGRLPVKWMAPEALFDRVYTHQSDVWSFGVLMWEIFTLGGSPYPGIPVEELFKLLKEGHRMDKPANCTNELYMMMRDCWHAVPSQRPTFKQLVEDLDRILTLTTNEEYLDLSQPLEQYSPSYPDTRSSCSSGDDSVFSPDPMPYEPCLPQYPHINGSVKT
Summary of the method: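 hFGFR2 150 ng/ml; Btn-Flt3 500 nM; ATP 0.4 μM; 50 mM HEPES pH 7.5, 6 mM MnCl2, 1 mM DTT, 0.1 mM Na3VO4, 0.01% Triton-X-100; 1% DMSO final.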

[2] = target: Ba/F3-FGFR4-transfected cells (Homo sapiens, UniProt P22455); assay: Ba/F3-FGFR4 cellular proliferation assay, Alamar Blue; assay type: cell-based
Ba/F3-FGFR4-transfected cells, sequence (P22455 whole entry, change not shown): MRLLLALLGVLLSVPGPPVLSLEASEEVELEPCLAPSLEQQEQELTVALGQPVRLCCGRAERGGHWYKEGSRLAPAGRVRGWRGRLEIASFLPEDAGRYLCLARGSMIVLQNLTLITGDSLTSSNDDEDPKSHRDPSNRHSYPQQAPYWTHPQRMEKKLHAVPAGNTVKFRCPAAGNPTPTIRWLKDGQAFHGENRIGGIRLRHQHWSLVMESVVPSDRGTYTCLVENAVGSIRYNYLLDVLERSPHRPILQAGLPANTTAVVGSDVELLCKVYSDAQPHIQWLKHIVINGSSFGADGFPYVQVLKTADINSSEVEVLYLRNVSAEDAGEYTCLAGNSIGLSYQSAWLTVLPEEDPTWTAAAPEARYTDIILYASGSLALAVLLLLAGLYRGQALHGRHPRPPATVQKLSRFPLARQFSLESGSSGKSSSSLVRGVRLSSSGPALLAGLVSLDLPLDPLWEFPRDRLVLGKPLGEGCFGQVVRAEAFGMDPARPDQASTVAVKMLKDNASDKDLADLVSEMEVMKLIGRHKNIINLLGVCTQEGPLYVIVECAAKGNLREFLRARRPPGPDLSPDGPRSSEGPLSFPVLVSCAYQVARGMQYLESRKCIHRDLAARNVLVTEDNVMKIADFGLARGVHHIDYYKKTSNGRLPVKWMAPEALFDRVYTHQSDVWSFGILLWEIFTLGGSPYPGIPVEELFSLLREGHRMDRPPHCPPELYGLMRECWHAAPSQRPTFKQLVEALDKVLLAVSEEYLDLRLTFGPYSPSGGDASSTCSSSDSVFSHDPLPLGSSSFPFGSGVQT
Summary of the method: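 Proliferation is measured by resazurin reduction: after 24 h compound treatment at 37 °C in RPMI-1640/10% FBS, cells get Alamar Blue for 4 h before RFU read (540/590 nm). Each well holds 20000 Ba/F3-FGFR4-transfected cells.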

[3] = test system: Ba/F3-FGFR1-transfected cells; assay: Ba/F3-FGFR1 (plus IL3) cellular proliferation assay, counterscreen with 10 ng/ml murine IL3; assay type: cell-based; settings: plus IL3 (10 ng/ml murine IL3, counterscreen); read-out: BAF3-FGFR1 (PLUS IL3) pIC50 (converted)
Summary of the method: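 Proliferation read-out: resazurin-based Alamar Blue fluorescence (540/590 nm) after 4 h, following 24 h compound treatment of 20000 Ba/F3-FGFR1 cells per well in 10% FBS RPMI at 37° C. IL3 counterscreen used the same protocol plus 10 ng/ml murine IL3.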

[4] = target: T2, Ba/F3-FGFR1-transfected cells (Homo sapiens, UniProt P11362); assay: Ba/F3-FGFR1 (minus IL3) cellular proliferation assay, Alamar Blue; assay type: cell-based
T2 construct: BAF3-FGFR1 (MIN IL3) pIC50; other: minus IL3
T2 sequence (P11362 whole entry, change not shown): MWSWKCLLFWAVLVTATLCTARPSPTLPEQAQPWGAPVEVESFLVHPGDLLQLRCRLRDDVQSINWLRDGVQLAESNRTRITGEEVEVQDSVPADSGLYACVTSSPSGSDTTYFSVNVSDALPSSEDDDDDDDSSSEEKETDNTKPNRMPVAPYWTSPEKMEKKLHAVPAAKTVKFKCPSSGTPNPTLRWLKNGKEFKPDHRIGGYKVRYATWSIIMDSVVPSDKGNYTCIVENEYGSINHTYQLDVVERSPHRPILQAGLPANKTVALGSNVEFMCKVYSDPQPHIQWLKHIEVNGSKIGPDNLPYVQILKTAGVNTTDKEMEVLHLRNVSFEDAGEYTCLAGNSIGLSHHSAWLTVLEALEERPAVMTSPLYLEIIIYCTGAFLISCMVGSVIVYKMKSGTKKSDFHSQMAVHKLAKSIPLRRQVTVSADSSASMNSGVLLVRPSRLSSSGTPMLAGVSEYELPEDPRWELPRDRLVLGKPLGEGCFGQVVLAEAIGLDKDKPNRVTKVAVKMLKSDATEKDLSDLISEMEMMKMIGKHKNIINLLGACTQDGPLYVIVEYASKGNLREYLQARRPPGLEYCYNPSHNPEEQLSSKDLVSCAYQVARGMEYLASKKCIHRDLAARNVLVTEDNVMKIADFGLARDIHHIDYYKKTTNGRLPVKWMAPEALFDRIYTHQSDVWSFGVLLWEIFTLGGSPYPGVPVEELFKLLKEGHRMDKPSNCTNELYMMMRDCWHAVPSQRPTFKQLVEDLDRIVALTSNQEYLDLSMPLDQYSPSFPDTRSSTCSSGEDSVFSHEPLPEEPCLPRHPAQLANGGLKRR
Summary of the method: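 Compound is dispensed first, then FGFR1-transfected Ba/F3 cells are added at 20000 per well in phenol red-free RPMI-1640 containing 10% FBS. After 24 h at 37 °C, Alamar Blue is added for 4 h and fluorescence is measured at 540/590 nm.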

[5] = test system: Ba/F3-FGFR3-transfected cells; assay: Ba/F3-FGFR3 (plus IL3) cellular proliferation assay, counterscreen with 10 ng/ml murine IL3; assay type: cell-based; settings: plus IL3 (10 ng/ml murine IL3, counterscreen); read-out: BAF3-FGFR3 (PLUS IL3) pIC50 (converted)
Summary of the method: as §1

SMILES | BAF3-FGFR3 (MIN IL3) pIC50 [1] | IC50 (KDR (h)) [nM] | IC50 (FGFR3 (h)) [nM] | IC50 (FGFR4 (h)) [nM] | IC50 (FGFR1 (h)) [nM] | IC50 (FGFR2 (h)) [nM] | BAF3-FGFR4 pIC50 [2] | IC50 [3] [nM] | BAF3-FGFR1 (MIN IL3) pIC50 [4] | IC50 [5] [nM]
COc1ccc(Cl)c(N(CC2CCC(=O)N2)c2ccc3ncc(-c4cnn(C)c4)nc3n2)c1Cl (single isomer, unassigned) [Compound 90] | 5.19 | > 1000 | 126 | ~912 | 166 | 129 | <5 | > 10000 | 5.04 | > 10000
COc1cc(OC)c(F)c(N(CCNC2COC2)c2ccc3ncc(-c4cnn(C)c4)nc3n2)c1F (single isomer, unassigned) [Compound 162] | 7.95 | 8.91 | 1.41 | 2.57 | 1.17 | 2.19 | ~7.56 | > 10000 | 7.88 | > 10000
COc1cc(OC)c(F)c(N(CCN(C2COC2)C2COC2)c2ccc3ncc(-c4cnn(C)c4)nc3n2)c1F (single isomer, unassigned) [Compound 163] | 7.34 | 8.51 | 2.63 | 3.24 | 0.977 | 1.91 | 7.32 | > 10000 | 7.82 | > 10000
COc1cc(/N=c2\ccc3ncc(-c4cnn(C)c4)nc3n2CC2CCOC2)c(F)c(OC)c1 (single isomer, unassigned) [Compound 169] | 7.44 | 4.27 | 1.02 | 0.977 | ~0.933 | 1.62 | 7.20 | > 10000 | 7.68 | > 10000
COc1cc(OC)c(F)c(N(CC2CCOC2)c2ccc3ncc(-c4cnn(C)c4)nc3n2)c1 (single isomer, unassigned) [Compound 170] | 6.78 | 13.5 | 2.19 | 4.9 | 2.34 | 2.14 | 6.49 | > 10000 | 6.92 | > 10000
COc1cc(/N=c2\ccc3ncc(-c4cnn(CC(C)(C)O)c4)nc3n2CC(C)(C)O)c(F)c(OC)c1 (single isomer, unassigned) [Compound 207] | ~7.57 | 8.32 | 1.17 | 3.16 | 0.813 | 2.51 | 6.69 | > 10000 | 7.45 | > 10000
COc1cc(OC)c(F)c(N(CC(C)(C)O)c2ccc3ncc(-c4cnn(CC(C)(C)O)c4)nc3n2)c1 (single isomer, unassigned) [Compound 208] | ~7.15 | 77.6 | 3.72 | 18.6 | 3.63 | 5.25 | 6.16 | > 10000 | 6.84 | > 10000
COc1cc(OC)c(F)c(N(CC2CCC(=O)N2CCO)c2ccc3ncc(-c4cnn(C)c4)nc3n2)c1 (single isomer, unassigned) [Compound 218] | ~7.64 | 42.7 | 4.17 | 3.89 | 3.24 | 5.5 | 6.99 | > 10000 | 7.51 | > 10000
COc1cc(/N=c2\ccc3ncc(-c4cnn(C)c4)nc3n2CC2CCC(=O)N2CCO)c(F)c(OC)c1 (single isomer, unassigned) [Compound 219] | 7.66 | 7.94 | 1.29 | 1.91 | 0.813 | 2.24 | 6.78 | > 10000 | 7.77 | > 10000
COc1ccc(Cl)c(N(CC2CCC(=O)N2)c2ccc3ncc(-c4cnn(C)c4)nc3n2)c1Cl (stereo not drawn) [Compound 93] | ~5.59 | > 1000 | 77.6 | 794 | 66.1 | 60.3 | 5.02 | > 10000 | 5.59 | > 10000
COc1cc(O)c(F)c(N(Cc2ncc[nH]2)c2ccc3ncc(-c4cnn(C)c4)nc3n2)c1 [Compound 96] | ~8.09 | 11.5 | 1.07 | 1.78 | 0.741 | 1.58 | 7.16 | > 10000 | 8.08 | > 10000
COc1cc(OC)cc(N(Cc2ncc[nH]2)c2ccc3ncc(-c4cn[nH]c4)nc3n2)c1 [Compound 141] | ~8.13 | 12 | 0.457 | 0.603 | 0.603 | 0.933 | 7.40 | > 10000 | 8.27 | > 10000
COc1cc(OC)cc(N(CC2COC2)c2ccc3ncc(-c4cnn(C)c4)nc3n2)c1 [Compound 142] | 5.30 | 74.1 | 5.75 | 30.2 | 16.2 | 7.94 | 5.10 | > 10000 | 5.49 | > 10000
COc1cc(/N=c2\ccc3ncc(-c4cnn(C)c4)nc3n2CC2COC2)c(F)c(OC)c1 [Compound 143] | 5.42 | 5.01 | 0.759 | 1.02 | 1.26 | 1.51 | 5.29 | > 10000 | 5.48 | > 10000
COc1cc(OC)c(F)c(N(CC2COC2)c2ccc3ncc(-c4cnn(C)c4)nc3n2)c1 [Compound 144] | 6.33 | 22.9 | 1.74 | 5.25 | 3.89 | 2.82 | 6.13 | > 10000 | 6.44 | > 10000
COc1cc(OC)c(F)c(N(Cc2nccn2CCO)c2ccc3ncc(-c4cnn(C)c4)nc3n2)c1 [Compound 145] | 7.04 | 25.7 | 4.68 | 10.5 | 3.24 | 3.8 | 6.61 | > 10000 | 7.26 | > 10000
COc1cc(OC)cc(N(CCN2CCOCC2)c2ccc3ncc(-c4cnn(C)c4)nc3n2)c1 [Compound 146] | ~7.14 | 41.7 | 4.9 | 17.8 | 6.76 | 4.68 | ~6.58 | > 10000 | 6.87 | > 10000
COc1cc(/N=c2\ccc3ncc(-c4cnn(C)c4)nc3n2CCN2CCOCC2)cc(OC)c1 [Compound 147] | 7.23 | 5.62 | 1.62 | 3.24 | 1.51 | 2.04 | 6.85 | > 10000 | 7.28 | > 10000
